Source: BindingDB's records for doi:10.1021/jm00159a020 (1986)

Experiment: Potency against rat brain adenosine A1 receptor at 10 uM

## CCCCN(C)C(=O)[C@H]1OC(n2cnc3c(NC(CC)CC)ncnc32)[C@H](O)[C@@H]1O (stereo partly specified)
  % displacement at 10 µM: 10%
